Tests used:
[1] = molecular target: partially purified TDTM-003 dehalogenase (Rhodococcus sp. TDTM0003, UniProt P59336); assay: Substrate profile of partially purified TDTM-003 dehalogenase; assay type: biochemical, Rhodococcus species TDTM-003; conditions: corrected for non-enzymatic hydrolysis
Protocol: (§1) Hydrolytic dehalogenase enzyme activity was evaluated by adding an appropriate amount of cell free extract or enzyme preparation to 5.0 mL of 100 mM glycine buffer, pH=9.0 in a 7 mL glass vial. The halogenated substrate (5.0 μl) and a small stir bar were added, and the vial capped. Reaction was initiated by transfer to a 30° C. water bath equipped with a magnetic stirrer. Periodically 1.0 mL samples were removed and assayed for free halide. Rates were determined after correcting for non-enzymatic hydrolysis with an appropriate blank. A standard curve was prepared using sodium chloride.
Frozen pellets from 2 liters of culture were thawed into 150 mL of 10 mM Tris sulfate buffer, pH=7.5 containing 1 mM disodium EDTA. This buffer was used throughout the entire purification. The suspension was sonicated for approximately 1 hour with ice cooling using a Microson Ultrasonic Cell Disrupter and centrifuged at 10,000 rpm for 15 minutes to remove cell debris. Supernatant was removed and the sonication/centrifugation repeated with fresh buffer to increase enzyme yield. Overall sonication efficiency was monitored by absorbence at 280 nm. Cell free extracts were combined and brought slowly to 30 percent saturation with solid ammonium sulfate. The suspension was centrifuged at 10,000 rpm for 30 minutes and the pellet discarded. The supernatant was brought to 70 percent saturation with solid ammonium sulfate and centrifugation repeated. Supernatant was discarded and the pellet taken up in a small volume of buffer and dialyzed overnight against 1 liter of the same. The preparation was applied to a 1.5×15cm column of DEAE-Sephadex equilibrated with the same buffer elution carried out with a 1 liter gradient from 0 to 400 mM ammonium sulfate. Fractions of about 7-8 mLs were collected. The active fractions were pooled and brought to 90 percent saturation with ammonium sulfate. The pellet was taken up in a minimal amount of buffer, ultrafiltered to 2.5 mL using 10,000 MWCO Novacell Ultrafiltration cell, and applied to a 1.5×90 cm Sephadex G-100 column. Elution was by gravity at 90 cm and fractions of 7-8 mLs were collected. Active fractions were poled, brought to 30 percent saturation with ammonium sulfate, and applied to a 10 ml column of Butyl-agarose equilibrated in the same. Elution was performed with a 500 mL gradient from 30 percent-0 percent ammonium sulfate. Active fractions were pooled, dialyzed and used for substrate selectivity studies.
To evaluate the substrate selectivity of haloalkane dehalogenase from isolated Rhodococcus species, an enzyme preparation from the strain designated TDTM-003 was purified by the procedure described under General Experimental. This preparation provided a dehalogenase which was approximately 50 percent pure as estimated by SDS-PAGE and was free of interfering halohydrin dehalogenase activity.
The activity of this partially purified TDTM-003 dehalogenase preparation was evaluated against various chlorinated and brominated substrates. Each enzymatic rate was corrected for non-enzymatic hydroloysis.

[2] = test system: dehalogenase in cell free extracts of Rhodococcus Rhodochrous, TDTM-003; assay: Primary screen of dehalogenase activity in cell free extracts of TDTM-003; assay type: biochemical
Protocol: Following overnight growth, 50 μl of 1-chlorobutane was added to induce the dehalogenase. After 24 hours induction, cells were harvested by centrifugation, resuspended in cold 10mM Tris sulfate/1 mM disodium EDTA, pH=7.5, and disrupted by sonication. Cell debris was removed by centrifugation at 10,000 rpm for 30 minutes, cell free extracts dialyzed overnight against the same buffer, and assayed without dilution for dehalogenase activity.
Free chloride or bromide was assayed qualitatively using a chloride electrode (Orion), or quantitatively using the colorimetric method (430 nm) described by J. G. Bergmann, et al., Anal. Chem., 29:241-243 (1957).
as §1
Preliminary studies were performed on cell free extracts of TDTM-003 to evaluate the enzyme substrate selectivity, and the results of this study are shown in Table 2.

[3] = test system: TDTM-003; assay: Utilization of carbon containing compounds for growth in liquid culture, TDTM-003; assay type: cell-based, Rhodococcus species; conditions: liquid culture
[4] = test system: TDTM-003-60-2-11; assay: Utilization of carbon containing compounds for growth in liquid culture, TDTM-003-60-2-11; assay type: cell-based, Rhodococcus species ATCC 55388;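 further: minus means no visible growth and plus means good growth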
Source text: A representative double mutant designated TDTM-003-60-2-11, made by the above example was deposited at the American Type Culture Collection on Jan. 28, 1993 and given the ATCC designation 55388.

[5] = test system: TDTM-003-60-2-11; assay: Dehalogenation by double mutant strain TDTM-003-60-2-11 in shake flask with bulb feeder; assay type: cell-based, Rhodococcus sp.; conditions: after 120 hours
Source text: For gas chromatography (GC) analysis of halogenated metabolites, cultures were centrifuged briefly to remove cells, saturated with sodium sulfate, and an equivalent volume of methylene chloride added. The suspension was vortexed vigorously, centrifuged to break the emulsion and the methylene chloride phase removed.
Analysis of all halocarbon substrates and products from culture broths was done by GC using a Hewlett Packard 5710 equipped with a 7671A Autoinjector with the following protocol:
Dehalogenation of 1,2-dichloropropane by the double mutant strain of Rhodococcus sp., designated TDTM-003-60-2-11 was assayed in the following manner: 5 mL of an overnight culture (16 hours) were used as inoculum for 50 mL MM1X4P containing 5 g/L disodium succinate in a 250 mL flask. At 4 and 8 hours growth, 10 μL of 1-chlorobutane was added to induce the dehalogenase enzyme. Following 24 hours of growth, cells were harvested by centrifugation, resuspended into 50 mL of fresh MM1X4P, and transferred to a sterile 250 mL shake flask equipped with a bulb feeder. To the bulb feeder was added 1,2-dichloropropane and incubation continued at 28° C. and 150 rpm. […] The production of halohydrin products was monitored by gas chromatography. 1 -Chloro-2-propanol and 2-chloro-1-propanol accumulate linearly in the culture broth to 74 parts-per-million (ppm) (w/v) and 20 ppm (w/v) respectively after 120 hours. The overall rate of halohydrin production is 0.60 mg/g dry cells/hr.
The procedure described in Example 6 was followed except 1,2-dichlorobutanereplaced 1-chlorobutane in the bulb feeder.
The procedure described in Example 6 was followed except 1,2,3-trichloropropane replaced 1-chlorobutane in the bulb feeder.

Sequence of partially purified TDTM-003 dehalogenase (P59336 whole entry): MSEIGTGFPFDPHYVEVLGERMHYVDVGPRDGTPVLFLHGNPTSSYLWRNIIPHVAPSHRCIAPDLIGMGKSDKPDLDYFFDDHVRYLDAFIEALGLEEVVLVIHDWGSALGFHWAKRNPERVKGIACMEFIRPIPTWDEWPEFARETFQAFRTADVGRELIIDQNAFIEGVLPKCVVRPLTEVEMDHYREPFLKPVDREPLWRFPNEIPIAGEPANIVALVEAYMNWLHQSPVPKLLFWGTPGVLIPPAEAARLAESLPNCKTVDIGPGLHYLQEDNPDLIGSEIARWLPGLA

| Compound | Relative Rate of Halogen Release, 1-Chlorobutane = 100 [1] | Relative Rate of Chloride Release, 1-chlorobutane = 100 [2] | further results |
| --- | --- | --- | --- |
| CCC(Br)CBr (stereo not drawn) [1,2-dibromobutane] | 756.000 |  |  |
| BrCCBr [1,2-dibromoethane] | 1318.000 |  |  |
| CC(Br)CBr (stereo not drawn) [1,2-dibromopropane] | 900.000 |  |  |
| CC(C)(Cl)CCl [1,2-dichloro-2-methylpropane] | 0.000 | 300 |  |
| ClCCCl [1,2-dichloroethane] | 4.400 | 2.8 |  |
| CC(Br)CCBr (stereo not drawn) [1,3-dibromobutane] | 155.000 |  |  |
| BrCCCBr [1,3-dibromopropane] | 771.000 |  |  |
| OC(CCl)CCl [1,3-dichloro-2-propane] |  |  | Utilization of carbon source for growth, TDTM-003 [3]: +/-; Utilization of carbon source for growth, TDTM-003-60-2-11 [4]: - |
| CC(Cl)CCCl (stereo not drawn) [1,3-dichlorobutane] | 81.000 | 63 |  |
| ClCCCCl [1,3-dichloropropane] | 253.000 | 203 |  |
| BrCCCCBr [1,4-dibromobutane] | 294.000 |  |  |
| ClCCCCCl [1,4-dichlorobutane] | 261.000 | 178 |  |
| ClCCCCCCl [1,5-dichloropentane] | 173.000 | 112 |  |
| BrCCCCCCBr [1,6-dibromohexane] | 244.000 |  |  |
| ClCCCCCCCl [1,6-dichlorohexane] | 252.000 | 169 |  |
| BrCCCCCCCCBr [1,8-dibromooctane] | 173.000 |  |  |
| ClCCCCCCCCCCCl [1,10-dichlorodecane] | 52.000 | 124 |  |
| CCC(O)CCl (stereo not drawn) [1-Chloro-2-butanol] |  |  | halohydrin accumulated in culture broth ([5]; substrate 1,2-dichlorobutane): 6.5 ppm (w/v) |
| ClCCBr [1-bromo-2-chloroethane] | 751.000 |  |  |
| CCCCBr [1-bromobutane] | 265.000 | 362 |  |
| CCCCCCCCCCBr [1-bromodecane] | 98.000 |  |  |
| CCCCCCBr [1-bromohexane] | 162.000 |  |  |
| CCCCCCCCBr [1-bromooctane] | 414.000 |  |  |
| CCCCCBr [1-bromopentane] | 203.000 |  |  |
| CCCBr [1-bromopropane] | 459.000 |  |  |
| CC(C)CCl [1-chloro-2-methylpropane] |  | 117 |  |
| CC(O)CCl (stereo not drawn) [1-chloro-2-propanol] |  |  | halohydrin accumulated in culture broth ([5]; substrate 1,2-dichloropropane): 74 ppm (w/v) |
| CCCCCl [1-chlorobutane] | 100.000 | 100 |  |

| Compound | Relative Rate of Halogen Release, 1-Chlorobutane = 100 [1] | Relative Rate of Chloride Release, 1-chlorobutane = 100 [2] | further results |
| --- | --- | --- | --- |
| CCCCCCCCCCCl [1-chlorodecane] | 28.000 |  |  |
| CCCCCCCCl [1-chloroheptane] | 130.000 |  |  |
| CCCCCCCl [1-chlorohexane] | 119.000 | 136 |  |
| CCCCCCCCCl [1-chlorooctane] | 58.000 | 159 |  |
| CCCCCCl [1-chloropentane] | 81.000 | 109 |  |
| CCCCl [1-chloropropane] | 33.000 | 57 |  |
| CC(C)(Cl)Cl [2,2-dichloropropane] | 23.000 |  |  |
| CC(Br)C(C)Br (stereo not drawn) [2,3-dibromobutane] | 846.000 |  |  |
| OCC(Cl)CCl (stereo not drawn) [2,3-dichloro-1-propane] |  |  | Utilization of carbon source for growth, TDTM-003 [3]: + /-; Utilization of carbon source for growth, TDTM-003-60-2-11 [4]: - |
| OCC(Cl)CCl (stereo not drawn) [2,3-dichloro-1-propanol] |  |  | halohydrin accumulated in culture broth ([5]; substrate 1,2,3-trichloropropane): 211 ppm (w/v) |
| CC(Cl)C(C)Cl (stereo not drawn) [2,3-dichlorobutane] | 19.000 | 73 |  |
| CC(C)Br [2-Bromopropane] | 55.000 |  |  |
| CCC(C)Br (stereo not drawn) [2-bromobutane] | 123.000 |  |  |
| CCC(Cl)CO (stereo not drawn) [2-chloro-1-butanol] |  |  | halohydrin accumulated in culture broth ([5]; substrate 1,2-dichlorobutane): 265 ppm (w/v) |
| CC(Cl)CO (stereo not drawn) [2-chloro-1-propanol] |  |  | halohydrin accumulated in culture broth ([5]; substrate 1,2-dichloropropane): 20 ppm (w/v) |
| CC(C)(C)Cl [2-chloro-2-methylpropane] |  | 2917 |  |
| CCC(C)Cl (stereo not drawn) [2-chlorobutane] | 20.000 | 65 |  |
| CCC(N)C(=O)O (stereo not drawn) [Aminobutyrate] |  |  | Utilization of carbon source for growth, TDTM-003 [3]: +; Utilization of carbon source for growth, TDTM-003-60-2-11 [4]: + |
| O=C(O)[C@H](O)[C@@H](O)[C@H](O)[C@H](O)CO [Gluconate] |  |  | Utilization of carbon source for growth, TDTM-003 [3]: ++; Utilization of carbon source for growth, TDTM-003-60-2-11 [4]: ++ |
| O=C[C@H](O)[C@@H](O)[C@H](O)[C@H](O)CO [Glucose] |  |  | Utilization of carbon source for growth, TDTM-003-60-2-11 [4]: + + |
| ClC1CCCCC1 [chlorocyclohexane] | 7.500 |  |  |
| O=C(O)c1cccc(O)c1 [m-OH Benz] |  |  | Utilization of carbon source for growth, TDTM-003 [3]: -; Utilization of carbon source for growth, TDTM-003-60-2-11 [4]: - |
| O=C(O)c1ccc(O)cc1 [p-OH-Benz] |  |  | Utilization of carbon source for growth, TDTM-003 [3]: -; Utilization of carbon source for growth, TDTM-003-60-2-11 [4]: - |
| Dextrin |  |  | Utilization of carbon source for growth, TDTM-003 [3]: -; Utilization of carbon source for growth, TDTM-003-60-2-11 [4]: - |
| Glycogen |  |  | Utilization of carbon source for growth, TDTM-003 [3]: +; Utilization of carbon source for growth, TDTM-003-60-2-11 [4]: + |
| Inulin |  |  | Utilization of carbon source for growth, TDTM-003 [3]: -; Utilization of carbon source for growth, TDTM-003-60-2-11 [4]: - |
| Phenylacetate |  |  | Utilization of carbon source for growth, TDTM-003 [3]: +; Utilization of carbon source for growth, TDTM-003-60-2-11 [4]: - |

From patent US5372944A, “Method for conversion of halogenated hydrocarbons to halohydrins” (The Dow Chemical Company, priority 1993, dated 1994)
